From US5834452A, “1- or 6-hydroxylated steroids” (Roussel Uclaf, priority 1996, dated 1998)

Target: T1, Human estrogen receptor (HOR) (Homo sapiens, UniProt P03372)
T1 construct: made in house; host or cells: SF9 insect cells (baculovirus), lysate supernatant
T1 sequence (P03372 1-595): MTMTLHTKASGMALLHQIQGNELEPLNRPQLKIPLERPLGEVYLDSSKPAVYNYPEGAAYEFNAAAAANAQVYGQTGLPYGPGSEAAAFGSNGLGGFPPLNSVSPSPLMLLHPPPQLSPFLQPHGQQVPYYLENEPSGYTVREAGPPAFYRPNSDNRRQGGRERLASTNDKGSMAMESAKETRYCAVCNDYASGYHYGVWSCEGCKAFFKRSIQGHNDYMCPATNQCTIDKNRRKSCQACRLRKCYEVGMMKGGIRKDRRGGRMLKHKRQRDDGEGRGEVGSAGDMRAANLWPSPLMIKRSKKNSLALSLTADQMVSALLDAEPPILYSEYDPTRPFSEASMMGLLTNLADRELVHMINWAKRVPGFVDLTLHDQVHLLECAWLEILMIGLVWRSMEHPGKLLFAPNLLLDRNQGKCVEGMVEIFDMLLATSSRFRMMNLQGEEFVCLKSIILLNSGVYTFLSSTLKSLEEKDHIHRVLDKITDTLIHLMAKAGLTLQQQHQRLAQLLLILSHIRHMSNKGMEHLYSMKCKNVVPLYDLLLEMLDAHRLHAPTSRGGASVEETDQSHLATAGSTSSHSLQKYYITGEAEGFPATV
Assay: Relative bond affinity (RBA), recombinant human estrogen receptor, charcoal dextran technique
Assay type: binding
Details: 24 h at 0° C., Estradiol = 100
Text: The human recombinant receptor (HGR, HPR, HAR, HMR, HER) was used.
Human estrogen receptor (HOR):
A supernatant of SF9 cells containing the recombinant human estrogen receptor was obtained by the process described above for the progestogen receptor using the cDNA fragment described in the expression vector HEGO by Tora et al (The EMBO Journal, (1989), Vol. 8 No. 7, p. 1981-1986) containing the region coding for the human estrogen receptor of "wild type" with a glycine in position 400. The cells obtained were lysed in the lysis buffer (1).
The supernatant was incubated at 0° C. for 24 hours with a constant concentration (T) of tritiated estradiol in the presence of increasing concentrations of either unlabelled estradiol (0-1000×10^-9 M), or the unlabelled product to be tested (1 to 25000×10^-9 M). The concentration of bound tritiated estradiol (B) was then measured in each incubate using the charcoal dextran adsorption technique.
Calculation of the relative bond affinity (RBA).
The following two curves were drawn: the percentage of bound tritiated hormone B/BO as a function of the logarithm of the concentration of unlabelled reference hormone or as a function of the logarithm of the concentration of unlabelled test product. The straight line of the following equation was determined: […]
The intersections of the straight line I50 and the curves allowed the evaluation of the concentrations of unlabelled reference hormone (CH) and of the unlabelled test product (CX) which inhibited by 50% the specific binding of the tritiated hormone on the receptor.
The relative bond affinity (RBA) of the test product was determined by the equation:
The RBA's of reference products Estradiol, Progesterone Dexamethasone, Testosterone and Aldosterone were arbitrarily taken as being equal to 100.

Row | Structure (SMILES) | RBA, Human estrogen receptor | RBA, Human estrogen receptor (listed as Trimegesterone) | RBA, Human estrogen receptor (listed as product B)
1 | C[C@H](O)C(=O)[C@@]1(C)CC[C@H]2[C@@H]3CCC4=CC(=O)CCC4=C3CC[C@@]21C [Trimegestone, [17β-(S)]-17-(2-hydroxy-1-oxopropyl)-17-methyl-Δ^4,9-estradiene-3-one, reference compound] | 0 | zero | –
2 | C[C@H](O)C(=O)[C@@]1(C)CC[C@H]2[C@@H]3C[C@@H](O)C4=CC(=O)CCC4=C3CC[C@@]21C [Product B, [6β, 17β-(S)]-6-hydroxy-17-(2-hydroxy-1-oxopropyl)-17-methyl-Δ^4,9-estradiene-3-one] | 0 | – | zero
